The values that follow come from ChEMBL document CHEMBL5465560, “Selectivity Literature for EUbOPEN Chemogenomic Library” (2024).

For experiment [1], the target named is CDK2/Cyclin A2 (Homo sapiens) (UniProt P24941+P20248). The experiment in a line: (§1) Selectivity interaction (ProQinase) EUB0000171b CDK2. Type of experiment: protein-complex assay.
Experiment [2] concerns the target Cyclin-dependent kinase 2/cyclin E1 (Homo sapiens) (UniProt P24864+P24941). The experiment is described as §1. In kind it is protein-complex assay.
In experiment [3] the target is T1, Serine/threonine-protein kinase ULK3 (Homo sapiens) (UniProt Q6PHR2).
T1 sequence (whole entry): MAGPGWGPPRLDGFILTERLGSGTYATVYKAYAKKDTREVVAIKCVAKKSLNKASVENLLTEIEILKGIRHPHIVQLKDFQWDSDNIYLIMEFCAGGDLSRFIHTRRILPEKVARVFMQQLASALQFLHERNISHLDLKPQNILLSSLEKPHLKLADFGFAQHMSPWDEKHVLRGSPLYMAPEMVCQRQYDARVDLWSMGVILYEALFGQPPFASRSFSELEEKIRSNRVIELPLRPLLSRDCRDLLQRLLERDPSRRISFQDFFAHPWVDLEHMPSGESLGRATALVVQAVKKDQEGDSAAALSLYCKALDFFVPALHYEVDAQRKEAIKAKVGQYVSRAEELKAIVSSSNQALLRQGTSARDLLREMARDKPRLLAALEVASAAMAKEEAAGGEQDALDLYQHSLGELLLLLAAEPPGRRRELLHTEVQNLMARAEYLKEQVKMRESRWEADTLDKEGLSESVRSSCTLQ
The experiment in a line: Selectivity interaction (Kinase panel (DSF assay)) EUB0001558a ULK3.

Experiment [4] has as its system Proto-oncogene tyrosine-protein kinase receptor Ret (Homo sapiens), P07949 [M918T]. Kind of experiment: (§2) Selectivity interaction (Ambit KINOMEscan and KiNATiv profiling in Jurkat cells) EUB0000090b RET. In kind it is cell-based. The conditions noted are these: at 1 µM.
The target in experiment [5] is Proto-oncogene tyrosine-protein kinase receptor Ret (Homo sapiens, UniProt P07949). Described as §2. Type of experiment: cell-based. The conditions noted are these: at 1 µM.
Proto-oncogene tyrosine-protein kinase receptor Ret, sequence (P07949 whole entry): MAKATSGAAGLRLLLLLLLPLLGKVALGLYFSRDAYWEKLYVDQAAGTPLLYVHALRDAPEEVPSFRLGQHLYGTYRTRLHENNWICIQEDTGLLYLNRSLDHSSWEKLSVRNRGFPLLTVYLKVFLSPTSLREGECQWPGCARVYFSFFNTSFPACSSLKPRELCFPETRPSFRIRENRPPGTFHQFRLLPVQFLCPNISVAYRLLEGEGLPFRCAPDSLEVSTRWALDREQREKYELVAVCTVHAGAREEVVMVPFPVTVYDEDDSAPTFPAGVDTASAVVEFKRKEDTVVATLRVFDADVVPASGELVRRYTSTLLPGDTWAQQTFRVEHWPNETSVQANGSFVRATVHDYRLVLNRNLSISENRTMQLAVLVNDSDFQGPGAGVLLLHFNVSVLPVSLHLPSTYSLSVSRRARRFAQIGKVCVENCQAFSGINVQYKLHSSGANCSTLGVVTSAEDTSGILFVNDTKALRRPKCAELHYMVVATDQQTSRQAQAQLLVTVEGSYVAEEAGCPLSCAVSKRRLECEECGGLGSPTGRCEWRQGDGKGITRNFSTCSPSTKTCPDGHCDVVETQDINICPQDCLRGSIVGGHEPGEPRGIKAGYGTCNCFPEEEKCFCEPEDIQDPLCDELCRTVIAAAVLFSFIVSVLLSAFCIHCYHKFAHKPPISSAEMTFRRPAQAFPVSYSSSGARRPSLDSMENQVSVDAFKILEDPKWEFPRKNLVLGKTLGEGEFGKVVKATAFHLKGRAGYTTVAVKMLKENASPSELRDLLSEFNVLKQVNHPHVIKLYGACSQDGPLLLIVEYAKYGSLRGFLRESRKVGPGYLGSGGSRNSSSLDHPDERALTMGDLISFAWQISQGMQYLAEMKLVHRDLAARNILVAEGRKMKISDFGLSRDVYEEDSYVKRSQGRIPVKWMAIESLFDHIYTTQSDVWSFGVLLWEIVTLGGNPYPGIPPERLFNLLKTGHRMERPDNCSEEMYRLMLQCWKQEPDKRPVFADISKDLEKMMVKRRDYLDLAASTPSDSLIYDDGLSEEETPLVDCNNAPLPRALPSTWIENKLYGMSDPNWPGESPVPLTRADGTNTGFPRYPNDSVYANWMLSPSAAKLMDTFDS
Experiment [6] concerns Proto-oncogene tyrosine-protein kinase receptor Ret (Homo sapiens), P07949 [V804M]. The experiment is described as §2. In kind it is cell-based. Particulars: at 1 µM.
Proto-oncogene tyrosine-protein kinase receptor Ret (Homo sapiens), P07949 [V804M], sequence (P07949 whole entry V804M): as the sequence (P07949 whole entry) above, with V804M counted along it
The subject of experiment [7] is Proto-oncogene tyrosine-protein kinase receptor Ret (Homo sapiens), P07949 [V804L]. Described as §2. Type of experiment: cell-based. Particulars: at 1 µM.
Experiment [8] deals with T2, Ephrin type-B receptor 6 (Homo sapiens) (UniProt O15197).
T2 sequence (whole entry): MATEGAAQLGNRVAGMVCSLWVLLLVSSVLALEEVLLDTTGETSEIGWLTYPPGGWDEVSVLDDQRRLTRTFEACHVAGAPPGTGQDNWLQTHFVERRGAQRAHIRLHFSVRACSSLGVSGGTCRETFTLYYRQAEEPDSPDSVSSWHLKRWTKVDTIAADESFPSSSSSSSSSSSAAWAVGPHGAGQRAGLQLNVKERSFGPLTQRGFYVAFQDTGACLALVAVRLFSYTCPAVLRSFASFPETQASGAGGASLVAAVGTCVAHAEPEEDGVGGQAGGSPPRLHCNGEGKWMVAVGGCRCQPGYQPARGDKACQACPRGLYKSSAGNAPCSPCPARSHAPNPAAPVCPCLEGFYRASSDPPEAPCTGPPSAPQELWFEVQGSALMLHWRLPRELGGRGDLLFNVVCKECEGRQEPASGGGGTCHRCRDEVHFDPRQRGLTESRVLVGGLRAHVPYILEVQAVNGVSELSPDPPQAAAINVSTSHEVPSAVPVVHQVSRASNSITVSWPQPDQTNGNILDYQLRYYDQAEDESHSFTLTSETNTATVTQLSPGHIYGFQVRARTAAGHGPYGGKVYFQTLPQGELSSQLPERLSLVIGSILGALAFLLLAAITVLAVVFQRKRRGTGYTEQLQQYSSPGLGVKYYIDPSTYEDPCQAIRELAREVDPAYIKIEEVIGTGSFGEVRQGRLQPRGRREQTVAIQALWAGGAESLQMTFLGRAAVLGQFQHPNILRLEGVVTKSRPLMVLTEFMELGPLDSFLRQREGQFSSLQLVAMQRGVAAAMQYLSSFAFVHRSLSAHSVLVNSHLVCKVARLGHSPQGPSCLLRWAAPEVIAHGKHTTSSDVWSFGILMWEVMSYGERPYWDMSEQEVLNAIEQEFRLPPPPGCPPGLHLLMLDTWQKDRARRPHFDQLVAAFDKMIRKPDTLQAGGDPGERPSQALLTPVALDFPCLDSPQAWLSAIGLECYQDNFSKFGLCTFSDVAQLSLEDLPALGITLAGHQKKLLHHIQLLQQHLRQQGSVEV
The experiment in a line: Selectivity interaction (KinomeScan (DiscoverX)) EUB0000666a EPHB6. The conditions noted are these: at 10 µM.

Experiment [9] addresses T3, Testis-specific serine/threonine-protein kinase 1 (Homo sapiens) (UniProt Q9BXA7).
T3 sequence (whole entry): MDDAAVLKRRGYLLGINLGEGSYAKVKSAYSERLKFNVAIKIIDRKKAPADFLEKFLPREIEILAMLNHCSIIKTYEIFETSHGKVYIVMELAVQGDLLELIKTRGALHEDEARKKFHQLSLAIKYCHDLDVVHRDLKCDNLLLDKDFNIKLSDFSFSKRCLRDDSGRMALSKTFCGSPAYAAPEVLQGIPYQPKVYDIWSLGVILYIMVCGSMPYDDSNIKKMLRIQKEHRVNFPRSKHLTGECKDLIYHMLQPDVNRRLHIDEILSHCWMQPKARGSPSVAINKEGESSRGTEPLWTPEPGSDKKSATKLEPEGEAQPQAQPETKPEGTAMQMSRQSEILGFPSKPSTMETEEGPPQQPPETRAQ
Kind of experiment: Selectivity interaction (KinomeScan (DiscoverX)) EUB0000618a TSSK1A. The conditions noted are these: at 10 µM.

Experiment [10] concerns the target 5'-AMP-activated protein kinase catalytic subunit alpha-1 (Homo sapiens, UniProt Q13131). The experiment in a line: Selectivity interaction (KinomeScan (DiscoverX)) EUB0000618a PRKAA1. The conditions noted are these: at 10 µM.
The target of experiment [11] is Cyclin-dependent kinase-like 1 (Homo sapiens) (UniProt Q00532). The experiment in a line: Selectivity interaction (KinomeScan (DiscoverX)) EUB0000618a CDKL1. Particulars: at 10 µM.
Cyclin-dependent kinase-like 1 (Homo sapiens), sequence (Q00532 whole entry): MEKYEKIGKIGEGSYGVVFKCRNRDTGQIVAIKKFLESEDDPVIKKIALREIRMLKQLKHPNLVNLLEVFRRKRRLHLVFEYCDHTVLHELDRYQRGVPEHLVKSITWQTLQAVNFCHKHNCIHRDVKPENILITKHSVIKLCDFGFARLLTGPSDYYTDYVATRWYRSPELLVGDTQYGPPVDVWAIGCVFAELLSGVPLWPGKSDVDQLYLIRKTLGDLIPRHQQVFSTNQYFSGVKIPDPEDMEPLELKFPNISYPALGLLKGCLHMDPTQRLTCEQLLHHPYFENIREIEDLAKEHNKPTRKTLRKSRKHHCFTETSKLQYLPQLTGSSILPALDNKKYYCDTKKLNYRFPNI

Proto-oncogene tyrosine-protein kinase receptor Ret (Homo sapiens), P07949 [V804L], sequence (P07949 whole entry V804L): as the sequence (P07949 whole entry) above, with V804L counted along it
Proto-oncogene tyrosine-protein kinase receptor Ret (Homo sapiens), P07949 [M918T], sequence (P07949 whole entry M918T): as the sequence (P07949 whole entry) above, with M918T counted along it
5'-AMP-activated protein kinase catalytic subunit alpha-1, sequence (Q13131 whole entry, looked up): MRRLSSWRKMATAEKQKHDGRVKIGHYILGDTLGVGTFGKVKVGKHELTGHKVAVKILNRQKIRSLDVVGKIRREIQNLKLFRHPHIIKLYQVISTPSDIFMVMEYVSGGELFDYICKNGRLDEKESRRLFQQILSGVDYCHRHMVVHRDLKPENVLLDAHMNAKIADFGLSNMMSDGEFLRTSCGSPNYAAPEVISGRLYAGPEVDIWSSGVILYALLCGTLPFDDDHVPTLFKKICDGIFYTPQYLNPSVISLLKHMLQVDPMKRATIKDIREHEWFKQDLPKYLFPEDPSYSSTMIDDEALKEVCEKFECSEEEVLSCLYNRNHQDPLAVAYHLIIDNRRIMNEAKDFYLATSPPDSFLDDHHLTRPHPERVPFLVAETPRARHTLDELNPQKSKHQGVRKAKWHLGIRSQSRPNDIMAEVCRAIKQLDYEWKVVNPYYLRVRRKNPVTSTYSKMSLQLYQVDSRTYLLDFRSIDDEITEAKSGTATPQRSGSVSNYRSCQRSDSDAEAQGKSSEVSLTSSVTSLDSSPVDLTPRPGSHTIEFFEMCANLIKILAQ

As to `C=CC(=O)Nc1cccc(C(=O)Nc2ccc(Nc3cc(-c4[nH]c(SC)nc4C)ccn3)cc2)c1`, the % of control in [1] (at 1 µM) is 78%; in experiment [1] (at 5 µM), 56%; in [2] (at 1 µM) it was 88%; in experiment [2] (at 5 µM), 62%.
Take `CC(C)(O)[C@H](F)CN1Cc2cc(NC(=O)c3cnn4cccnc34)c(N3CCOCC3)cc2C1=O`: in experiment [3], the dTM stood at 6.3 K.
With `CN(C)C/C=C/C(=O)Nc1ccc(C(=O)N2CCCC(Nc3ncc(Cl)c(-c4c[nH]c5ccccc45)n3)C2)cc1` (stereo not drawn), the % of control came out at 68% in experiment [4], 90% in [5], 89% in [6] and 71% in experiment [7].
`O=C(NOC[C@H](O)CO)c1ccc(F)c(F)c1Nc1ccc(I)cc1F`: the % of control in experiment [8] was found to be 87%.
With `O[C@H]1CC[C@H](Nc2ncc3nc(Nc4c(F)cc(F)cc4F)n([C@H]4CCOC4)c3n2)CC1`, the results for the % of control in experiment [9], in experiment [10] and in experiment [11] were 100%, 99% and 95%, respectively.
